Source: paper PMC8799717, “Pharmacological targeting PIKfyve and tubulin as an effective treatment strategy for double-hit lymphoma” (Cell Death Discovery, 2022)

Tests used:
Assay in all cases: biochemical
Set-up in all cases: KINOMEscan active-site-directed competition binding panel, 468 kinases, percent of DMSO control at 1 uM
Details in all cases: KINOMEscan binding, percent of DMSO control; read-out: Ctrl%
[1] = target: CSNK1A1L (Homo sapiens, UniProt Q8N752)
[2] = target: EGFR(G719S) (Homo sapiens, UniProt P00533, G719S)
[3] = target: EGFR(S752-I759del) (Homo sapiens, UniProt P00533, DEL752-759)
[4] = target: EGFR(T790M) (Homo sapiens, UniProt P00533, T790M)
[5] = target: EPHA6 (Homo sapiens, UniProt Q9UF33)
[6] = target: FLT3(K663Q) (Homo sapiens, UniProt P36888, K663Q)
[7] = target: GRK1 (Homo sapiens, UniProt Q15835)
[8] = target: INSR (Homo sapiens, UniProt P06213)
[9] = target: KIT-autoinhibited (Homo sapiens, UniProt P10721)
[10] = target: T1, LZK (Homo sapiens, UniProt O43283)
T1 construct: gene MAP3K13

[11] = target: MARK3 (Homo sapiens, UniProt P27448)
[12] = target: MET(Y1235D) (Homo sapiens, UniProt P08581, Y1235D)
[13] = target: T2, MKK7 (Homo sapiens, UniProt O14733)
T2 construct: gene MAP2K7

[14] = target: T3, MLCK (Homo sapiens, UniProt Q32MK0)
T3 construct: gene MYLK3

[15] = target: T4, MLK1 (Homo sapiens, UniProt P80192)
T4 construct: gene MAP3K9

[16] = target: MYLK4 (Homo sapiens, UniProt Q86YV6)
[17] = target: MYO3B (Homo sapiens, UniProt Q8WXR4)
[18] = target: NEK2 (Homo sapiens, UniProt P51955)
[19] = target: PDPK1 (Homo sapiens, UniProt O15530)
[20] = target: T5, PIP5K2B (Homo sapiens, UniProt P78356)
T5 construct: gene PIP4K2B

[21] = target: T6, RPS6KA4(Kin.Dom.2-C-terminal) (Homo sapiens, UniProt O75676)
T6 construct: Kin.Dom.2-C-terminal

[22] = target: SLK (Homo sapiens, UniProt Q9H2G2)
[23] = target: TNNI3K (Homo sapiens, UniProt Q59H18)

Sequence of MARK3 (P27448 whole entry): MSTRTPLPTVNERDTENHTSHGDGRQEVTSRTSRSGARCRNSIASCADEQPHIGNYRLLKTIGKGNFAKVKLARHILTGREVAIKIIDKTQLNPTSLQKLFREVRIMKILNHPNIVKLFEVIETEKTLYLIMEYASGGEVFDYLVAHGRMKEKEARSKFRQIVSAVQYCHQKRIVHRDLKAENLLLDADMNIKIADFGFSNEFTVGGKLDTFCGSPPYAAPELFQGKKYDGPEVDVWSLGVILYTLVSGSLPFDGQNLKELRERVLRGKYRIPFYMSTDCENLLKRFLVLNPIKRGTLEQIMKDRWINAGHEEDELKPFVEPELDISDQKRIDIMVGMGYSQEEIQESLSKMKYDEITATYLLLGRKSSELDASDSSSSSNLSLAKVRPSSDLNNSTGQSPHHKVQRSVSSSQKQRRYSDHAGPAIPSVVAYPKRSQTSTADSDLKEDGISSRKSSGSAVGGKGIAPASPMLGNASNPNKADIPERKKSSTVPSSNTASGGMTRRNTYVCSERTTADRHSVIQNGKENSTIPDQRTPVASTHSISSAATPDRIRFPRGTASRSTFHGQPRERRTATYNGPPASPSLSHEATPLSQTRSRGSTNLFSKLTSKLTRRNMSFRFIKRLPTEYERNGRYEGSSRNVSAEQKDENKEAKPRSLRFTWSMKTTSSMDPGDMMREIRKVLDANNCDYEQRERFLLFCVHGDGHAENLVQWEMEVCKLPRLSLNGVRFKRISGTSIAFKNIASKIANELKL
Sequence of SLK (Q9H2G2 whole entry): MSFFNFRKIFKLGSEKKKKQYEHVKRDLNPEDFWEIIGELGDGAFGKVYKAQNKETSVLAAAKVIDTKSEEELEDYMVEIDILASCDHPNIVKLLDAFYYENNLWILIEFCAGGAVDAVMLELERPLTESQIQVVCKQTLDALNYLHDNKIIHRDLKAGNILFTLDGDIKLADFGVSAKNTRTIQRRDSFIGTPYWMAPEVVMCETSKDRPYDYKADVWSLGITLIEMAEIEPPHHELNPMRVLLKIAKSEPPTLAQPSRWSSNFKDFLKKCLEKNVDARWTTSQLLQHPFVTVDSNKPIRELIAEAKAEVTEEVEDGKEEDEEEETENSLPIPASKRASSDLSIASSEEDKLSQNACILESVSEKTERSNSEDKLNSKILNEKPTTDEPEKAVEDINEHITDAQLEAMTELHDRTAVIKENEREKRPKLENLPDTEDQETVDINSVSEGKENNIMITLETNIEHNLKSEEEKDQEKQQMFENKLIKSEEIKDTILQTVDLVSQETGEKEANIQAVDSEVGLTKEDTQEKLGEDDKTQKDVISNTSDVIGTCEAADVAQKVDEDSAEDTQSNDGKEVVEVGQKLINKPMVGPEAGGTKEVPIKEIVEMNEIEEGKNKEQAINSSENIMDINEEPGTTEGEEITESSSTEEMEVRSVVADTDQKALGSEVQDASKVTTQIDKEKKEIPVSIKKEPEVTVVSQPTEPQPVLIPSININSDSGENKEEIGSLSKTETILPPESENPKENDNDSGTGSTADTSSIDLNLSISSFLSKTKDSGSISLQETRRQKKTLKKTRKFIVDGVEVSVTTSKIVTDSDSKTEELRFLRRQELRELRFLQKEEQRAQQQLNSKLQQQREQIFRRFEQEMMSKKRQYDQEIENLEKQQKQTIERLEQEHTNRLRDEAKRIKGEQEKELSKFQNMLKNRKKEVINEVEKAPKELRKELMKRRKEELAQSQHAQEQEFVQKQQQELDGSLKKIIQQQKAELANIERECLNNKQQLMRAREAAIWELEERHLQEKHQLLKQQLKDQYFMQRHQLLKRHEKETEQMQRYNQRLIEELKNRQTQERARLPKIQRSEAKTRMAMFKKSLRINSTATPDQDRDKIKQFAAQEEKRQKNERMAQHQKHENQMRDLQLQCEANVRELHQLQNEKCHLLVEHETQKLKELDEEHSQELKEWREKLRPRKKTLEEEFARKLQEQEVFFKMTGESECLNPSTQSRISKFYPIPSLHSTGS
T4 sequence (P80192 whole entry): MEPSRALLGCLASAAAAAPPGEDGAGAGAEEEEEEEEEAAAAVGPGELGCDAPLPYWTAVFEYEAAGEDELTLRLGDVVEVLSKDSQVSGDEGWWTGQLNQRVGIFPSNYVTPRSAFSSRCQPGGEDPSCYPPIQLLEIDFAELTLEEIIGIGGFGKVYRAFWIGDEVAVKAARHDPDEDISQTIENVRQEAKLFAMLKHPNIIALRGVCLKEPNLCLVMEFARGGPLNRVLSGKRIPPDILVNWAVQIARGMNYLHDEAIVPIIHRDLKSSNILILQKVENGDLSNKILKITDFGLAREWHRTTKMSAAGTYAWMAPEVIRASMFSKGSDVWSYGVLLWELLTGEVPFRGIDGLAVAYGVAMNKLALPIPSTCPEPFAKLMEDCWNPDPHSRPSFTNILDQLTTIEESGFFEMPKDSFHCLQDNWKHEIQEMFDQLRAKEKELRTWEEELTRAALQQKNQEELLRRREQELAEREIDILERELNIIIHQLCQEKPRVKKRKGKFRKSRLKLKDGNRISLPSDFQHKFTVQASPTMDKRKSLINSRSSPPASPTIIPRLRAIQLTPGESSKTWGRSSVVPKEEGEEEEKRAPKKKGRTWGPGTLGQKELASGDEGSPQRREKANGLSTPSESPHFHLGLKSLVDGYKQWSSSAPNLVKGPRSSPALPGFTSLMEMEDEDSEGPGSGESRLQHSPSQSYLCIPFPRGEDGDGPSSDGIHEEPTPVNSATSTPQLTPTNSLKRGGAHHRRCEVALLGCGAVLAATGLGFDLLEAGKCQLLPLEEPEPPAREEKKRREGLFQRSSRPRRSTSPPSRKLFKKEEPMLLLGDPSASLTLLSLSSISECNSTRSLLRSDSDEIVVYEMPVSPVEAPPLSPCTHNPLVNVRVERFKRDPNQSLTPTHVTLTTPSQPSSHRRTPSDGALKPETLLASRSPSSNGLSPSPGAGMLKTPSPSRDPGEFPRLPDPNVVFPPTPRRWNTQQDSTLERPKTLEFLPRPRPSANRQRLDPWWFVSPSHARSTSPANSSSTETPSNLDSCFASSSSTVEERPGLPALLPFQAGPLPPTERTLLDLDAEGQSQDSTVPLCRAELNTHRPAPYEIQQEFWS
Sequence of NEK2 (P51955 whole entry): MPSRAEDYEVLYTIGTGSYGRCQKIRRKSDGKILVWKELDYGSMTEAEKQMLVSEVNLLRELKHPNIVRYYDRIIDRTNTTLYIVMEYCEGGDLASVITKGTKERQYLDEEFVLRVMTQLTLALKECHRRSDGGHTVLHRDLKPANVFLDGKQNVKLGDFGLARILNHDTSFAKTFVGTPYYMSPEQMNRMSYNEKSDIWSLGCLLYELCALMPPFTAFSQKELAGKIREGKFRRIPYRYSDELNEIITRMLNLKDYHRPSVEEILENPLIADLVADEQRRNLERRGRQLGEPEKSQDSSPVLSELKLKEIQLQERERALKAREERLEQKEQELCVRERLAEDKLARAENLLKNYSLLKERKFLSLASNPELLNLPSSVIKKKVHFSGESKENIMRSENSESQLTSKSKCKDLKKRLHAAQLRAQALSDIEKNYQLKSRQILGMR
Sequence of MYLK4 (Q86YV6 whole entry): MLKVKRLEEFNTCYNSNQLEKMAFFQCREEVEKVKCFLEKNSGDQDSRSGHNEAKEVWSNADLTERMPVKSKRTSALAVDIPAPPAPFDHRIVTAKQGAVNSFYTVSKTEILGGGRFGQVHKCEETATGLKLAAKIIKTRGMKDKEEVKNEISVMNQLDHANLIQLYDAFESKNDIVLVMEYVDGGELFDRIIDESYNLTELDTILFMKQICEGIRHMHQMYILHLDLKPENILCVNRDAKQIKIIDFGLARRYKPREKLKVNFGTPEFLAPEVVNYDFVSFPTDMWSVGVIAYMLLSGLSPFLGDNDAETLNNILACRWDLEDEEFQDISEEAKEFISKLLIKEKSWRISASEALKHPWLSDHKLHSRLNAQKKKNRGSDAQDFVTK
T5 sequence (P78356 whole entry): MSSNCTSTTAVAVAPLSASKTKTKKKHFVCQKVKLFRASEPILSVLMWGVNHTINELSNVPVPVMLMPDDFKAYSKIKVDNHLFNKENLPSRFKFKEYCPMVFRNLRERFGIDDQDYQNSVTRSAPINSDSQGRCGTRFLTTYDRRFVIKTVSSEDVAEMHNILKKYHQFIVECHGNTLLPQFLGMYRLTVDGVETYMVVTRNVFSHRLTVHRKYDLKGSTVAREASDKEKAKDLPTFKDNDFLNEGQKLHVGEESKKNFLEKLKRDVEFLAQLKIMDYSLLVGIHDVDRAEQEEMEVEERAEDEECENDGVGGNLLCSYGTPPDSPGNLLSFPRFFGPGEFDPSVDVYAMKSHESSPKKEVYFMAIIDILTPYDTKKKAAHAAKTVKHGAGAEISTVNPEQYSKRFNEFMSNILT
Sequence of GRK1 (Q15835 whole entry): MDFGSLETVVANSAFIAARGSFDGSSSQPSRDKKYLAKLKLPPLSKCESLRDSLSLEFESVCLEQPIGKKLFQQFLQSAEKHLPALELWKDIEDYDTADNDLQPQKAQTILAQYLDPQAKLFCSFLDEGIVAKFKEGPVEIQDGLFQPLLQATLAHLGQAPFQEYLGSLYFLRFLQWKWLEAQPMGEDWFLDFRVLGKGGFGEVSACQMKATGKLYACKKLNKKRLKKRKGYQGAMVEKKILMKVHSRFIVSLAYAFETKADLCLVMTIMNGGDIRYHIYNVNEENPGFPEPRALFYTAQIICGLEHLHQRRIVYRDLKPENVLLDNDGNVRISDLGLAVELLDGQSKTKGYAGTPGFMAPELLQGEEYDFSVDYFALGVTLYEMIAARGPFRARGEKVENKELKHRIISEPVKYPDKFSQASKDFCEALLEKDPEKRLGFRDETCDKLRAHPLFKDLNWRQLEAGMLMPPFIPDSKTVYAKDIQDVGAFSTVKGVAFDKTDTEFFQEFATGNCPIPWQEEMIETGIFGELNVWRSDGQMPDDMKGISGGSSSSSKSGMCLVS

Cc1ccc(NC(=O)c2cccc(C(F)(F)F)c2)cc1Nc1cc(-c2cccnc2)nc2[nH]ccc12 [HZX-02-059]
remaining binding at 1 µM [1]: 92% | remaining binding at 1 µM [2]: 97% | remaining binding at 1 µM [3]: 100% | remaining binding at 1 µM [4]: 94% | remaining binding at 1 µM [5]: 69% | remaining binding at 1 µM [6]: 98% | remaining binding at 1 µM [7]: 77% | remaining binding at 1 µM [8]: 100% | remaining binding at 1 µM [9]: 88% | remaining binding at 1 µM [10]: 100% | remaining binding at 1 µM [11]: 92% | remaining binding at 1 µM [12]: 95% | remaining binding at 1 µM [13]: 95% | remaining binding at 1 µM [14]: 100% | remaining binding at 1 µM [15]: 100% | remaining binding at 1 µM [16]: 90% | remaining binding at 1 µM [17]: 97% | remaining binding at 1 µM [18]: 66% | remaining binding at 1 µM [19]: 89% | remaining binding at 1 µM [20]: 76% | remaining binding at 1 µM [21]: 97% | remaining binding at 1 µM [22]: 100% | remaining binding at 1 µM [23]: 6.3%
